# Earlier results in patent US7204996B2, “Method of cancer treatment” (Board of Regents, The University of Texas System, priority 1999, dated 2007).
# How the values were obtained:
# [1] = tested on: MDR overexpressing HL-60 cells; conditions: for resistance index decrease on coincubation with verapamil: in the presence of verapamil
Structure (SMILES),resistance index decrease on coincubation with verapamil [1],solubility in water solutions,cytotoxicity ([1]; MDR overexpressing HL-60 cells),resistance index ([1]; compared with idarubicin and doxorubicin)
"CC(=O)[C@]1(O)Cc2c(O)c3c(c(O)c2[C@@H](O[C@H]2C[C@H](N)[C@H](O)[C@H](C)O2)C1)C(=O)c1ccccc1C3=O [idarubicin, reference compound]",2 fold,–,–,–
"COc1cccc2c1C(=O)c1c(O)c3c(c(O)c1C2=O)C[C@@](O)(C(=O)CO)C[C@@H]3O[C@H]1C[C@H](N)[C@H](O)[C@H](C)O1 [doxorubicin, reference compound]",4.5 fold,–,–,–
"C[C@@H]1O[C@@H](O[C@H]2C[C@](O)(C(=O)CO)Cc3c(O)c4c(c(O)c32)C(=O)c2ccccc2C4=O)[C@H](I)[C@H](O)[C@H]1O [Annamycin, (7S,9S)-4-demethoxy-7-O-(2,6-dideoxy-2-iodo-alphamannopryanosyl) adriamycinone]",did not change,completely insoluble,cytotoxic,lower than that of idarubicin and doxorubicin
